Like-named read-outs stand apart in the source and are kept apart here. Some results are limits rather than exact numbers.

The subject of assay [1] is PIKFYVE TDP-43 yeast strain. Kind of assay: Propidium iodide viability assay in PIKFYVE TDP-43 yeast strain. The assay is classed as cell-based. The following applies: for IC50: Saccharomyces cerevisiae, PIKFYVE TDP-43 yeast strain, reduction in PI-positive cells, 15 to 0.11 μM, 24 hours; for PIKfyve TDP-43 (active/inactive): PIKFYVE TDP-43 yeast model. The text has this:
Generation of TDP-43 yeast model expressing human PIKfyve. Human PIKFYVE (“entry clone”) was cloned into pAG416GPDccdB (“destination vector”) according to standard Gateway cloning protocols (Invitrogen, Life Technologies). […] Lithium acetate/polyethylene glycol-based transformation was used to introduce the above PIKFYVE plasmid into a BY4741 yeast strain auxotrophic for the ura3 gene and deleted for two transcription factors that regulate the xenobiotic efflux pumps, a major efflux pump, and FAB1, the yeast ortholog of PIKFYVE (MATa, snq2::KILeu2; pdr3::Klura3; pdr1::NATMX; fab1::G418^R, his3; leu2; ura3; met15; LYS2+) (FIG. 2). Transformed yeast were plated on solid agar plates with complete synthetic media lacking uracil (CSM-ura) and containing 2% glucose. Individual colonies harboring the control or PIKFYVE TDP-43 plasmids were recovered. A plasmid containing wild-type TDP-43 under the transcriptional control of the GAL1 promoter and containing the hygromycin-resistance gene as a selectable marker was transformed into the fab1::G418^R pAG416GPD-PIKFYVE yeast strain (FIG. 1). Transformed yeast were plated on CSM-ura containing 2% glucose and 200 µg/mL G418 after overnight recovery in media lacking antibiotic. Multiple independent isolates were further evaluated for cytotoxicity and TDP-43 expression levels.
Viability Assay. A control yeast strain with the wild-type yeast FAB1 gene and TDP-43 (“FAB1 TDP-43”, carries empty pAG416 plasmid), and the “PIKFYVE TDP-43” yeast strain, were assessed for toxicity using a propidium iodide viability assay. Both yeast strains were transferred from solid CSM-ura/2% glucose agar plates into 3 mL of liquid CSM-ura/2% glucose media for 6-8 hours at 30° C. with aeration. […] Log-phase overnight cultures were diluted to OD600 of 0.005 in CSM-ura containing either 2% raffinose or galactose and 150 µL dispensed into each well of a flat bottom 96-well plates. […] Wells containing DMSO alone were also evaluated as controls for compound effects. […] Cultures were immediately mixed to ensure compound distribution and covered plates incubated at 30° C. for 24 hours in a stationary, humified incubator.
(§1) Upon the completion of incubation, cultures were assayed for viability using propidium iodide (PI) to stain for dead/dying cells. A working solution of PI was made where, for each plate, 1 µL of 10 mM PI was added to 10 mL of CSM-ura (raffinose or galactose). The final PI solution (50 µL/well) was dispensed into each well of a new round bottom 96-well plate. The overnight 96-well assay plate was then mixed with a multichannel pipet and 50 µL transferred to the PI-containing plate. This plate was then incubated for 30 minutes at 30° C. in the dark. A benchtop flow cytometer (Miltenyi MACSquant) was then used to assess red fluorescence (B2 channel), forward scatter, and side scatter (with following settings: gentle mix, high flow rate, fast measurement, 10,000 events). Intensity histograms were then gated for “P-positive” or “PI-negative” using the raffinose and galactose cultures treated with DMSO as controls. The DMSO controls for raffinose or galactose-containing cultures were used to determine the window of increased cell death and this difference set to 100. All compounds were similarity gated and then compared to this maximal window to establish the percent reduction in PI-positive cells.

Another assay concerns FAB1 TDP-43 yeast strain. Kind of assay: Propidium iodide viability assay in FAB1 TDP-43 control yeast strain. The assay is classed as cell-based. The following applies: for FAB1 TDP-43 (active/inactive): FAB1 TDP-43 yeast model. How it is done: Viability Assay. A control yeast strain with the wild-type yeast FAB1 gene and TDP-43 (“FAB1 TDP-43”, carries empty pAG416 plasmid), and the “PIKFYVE TDP-43” yeast strain, were assessed for toxicity using a propidium iodide viability assay. Both yeast strains were transferred from solid CSM-ura/2% glucose agar plates into 3 mL of liquid CSM-ura/2% glucose media for 6-8 hours at 30° C. with aeration. Yeast cultures were then diluted to an optical density at 600 nm wavelength (OD600) of 0.005 in 3 mL of CSM-ura/2% raffinose and grown overnight at 30° C. with aeration to an OD600 of 0.3-0.8. Log-phase overnight cultures were diluted to OD600 of 0.005 in CSM-ura containing either 2% raffinose or galactose and 150 µL dispensed into each well of a flat bottom 96-well plates. Compounds formulated in 100% dimethyl sulfoxide (DMSO) were serially diluted in DMSO and 1.5 µL diluted compound transferred to the 96-well plates using a multichannel pipet. Wells containing DMSO alone were also evaluated as controls for compound effects. Tested concentrations ranged from 15 µM to 0.11 µM. Cultures were immediately mixed to ensure compound distribution and covered plates incubated at 30° C. for 24 hours in a stationary, humified incubator.
as §1

In assay [2] the target is full-length human PIKFYVE (Homo sapiens (Human), UniProt Q9Y2I7, L932S/Q1183K/Q995L/S1033A/S696N/T998S). Kind of assay: PIKfyve Biochemical Assay (ADP-Glo Kinase assay, GST-PIKFYVE). How it is done: PIKfyve Biochemical Assay. The biochemical PIKFyve inhibition assays were run by Cama Biosciences according to proprietary methodology based on the Promega ADP-Glo™ Kinase assay. […] GST-PIKFYVE was purified by using glutathione sepharose chromatography and used in an ADP-Glo™ Kinase assay (Promega). Reactions were set up by adding the test compound solution, substrate solution, ATP solution and kinase solution, each at 4× final concentrations. Reactions were prepared with assay buffer (50 mM MOPS, 1 mM DTT, pH7.2), mixed, and incubated in black 384 well polystyrene plates for 1 hour at room temperature. ADP-Glo™ reagent was then added for 40 minutes, followed by kinase detection reagent for an additional 40 minutes. The kinase activity was evaluated by detecting relative light units on a luminescence plate reader. Samples were run in duplicate from 10 μM to 3 nM. […] IC50 values were calculated from concentration versus percent inhibition curves by fitting to a four-parameter logistic curve.
The biochemical PIKFyve inhibition assays were run by Cama Biosciences according to proprietary methodology based on the Promega ADP-Glo™ Kinase assay. […] GST-PIKFYVE was purified by using glutathione sepharose chromatography and used in an ADP-Glo™ Kinase assay (Promega).
Reactions were set up by adding the test compound solution, substrate solution, ATP solution and kinase solution, each at 4× final concentrations. Reactions were prepared with assay buffer (50 mM MOPS, 1 mM DTT, pH7.2), mixed, and incubated in black 384 well polystyrene plates for 1 hour at room temperature. ADP-Glo™ reagent was then added for 40 minutes, followed by kinase detection reagent for an additional 40 minutes. The kinase activity was evaluated by detecting relative light units on a luminescence plate reader. Samples were run in duplicate from 10 uM to 3 nM. […] IC50 values were calculated from concentration vs % inhibition curves by fitting to a four-parameter logistic curve.
Background: In ADP-Glo the light output rises with the ADP produced.

For the next assay, the target named is PIKfyve (Homo sapiens (Human), UniProt Q9Y2I7). As to the kind of experiment: PIKfyve EEA1 Assay (endosomal vesicle enlargement, high content imaging in U2OS cells). The assay is classed as cell-based. The following applies: 3 hours of treatment, activity relative to maximal APY0201 activity. The method in brief:
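U2OS cells exposed to compound for 3 h in DMEM with 10% FBS, then fixed, EEA1-immunostained and imaged at 40×. Endosome enlargement scored by a classifier on EEA1 spot size, intensity and texture, trained on APY0201-treated cells. Percent activity set DMSO-subtracted versus maximal APY0201, IC50 by logistic regression.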

The mark [3] stands for this setting: ADP-Glo, 1 hour at room temperature, 10 μM to 3 nM in duplicate, read-out: PIKfyve Biochemistry IC50 (μM)*.

full-length human PIKFYVE, sequence (Q9Y2I7 whole entry S696N/L932S/Q995L/T998S/S1033A/Q1183K): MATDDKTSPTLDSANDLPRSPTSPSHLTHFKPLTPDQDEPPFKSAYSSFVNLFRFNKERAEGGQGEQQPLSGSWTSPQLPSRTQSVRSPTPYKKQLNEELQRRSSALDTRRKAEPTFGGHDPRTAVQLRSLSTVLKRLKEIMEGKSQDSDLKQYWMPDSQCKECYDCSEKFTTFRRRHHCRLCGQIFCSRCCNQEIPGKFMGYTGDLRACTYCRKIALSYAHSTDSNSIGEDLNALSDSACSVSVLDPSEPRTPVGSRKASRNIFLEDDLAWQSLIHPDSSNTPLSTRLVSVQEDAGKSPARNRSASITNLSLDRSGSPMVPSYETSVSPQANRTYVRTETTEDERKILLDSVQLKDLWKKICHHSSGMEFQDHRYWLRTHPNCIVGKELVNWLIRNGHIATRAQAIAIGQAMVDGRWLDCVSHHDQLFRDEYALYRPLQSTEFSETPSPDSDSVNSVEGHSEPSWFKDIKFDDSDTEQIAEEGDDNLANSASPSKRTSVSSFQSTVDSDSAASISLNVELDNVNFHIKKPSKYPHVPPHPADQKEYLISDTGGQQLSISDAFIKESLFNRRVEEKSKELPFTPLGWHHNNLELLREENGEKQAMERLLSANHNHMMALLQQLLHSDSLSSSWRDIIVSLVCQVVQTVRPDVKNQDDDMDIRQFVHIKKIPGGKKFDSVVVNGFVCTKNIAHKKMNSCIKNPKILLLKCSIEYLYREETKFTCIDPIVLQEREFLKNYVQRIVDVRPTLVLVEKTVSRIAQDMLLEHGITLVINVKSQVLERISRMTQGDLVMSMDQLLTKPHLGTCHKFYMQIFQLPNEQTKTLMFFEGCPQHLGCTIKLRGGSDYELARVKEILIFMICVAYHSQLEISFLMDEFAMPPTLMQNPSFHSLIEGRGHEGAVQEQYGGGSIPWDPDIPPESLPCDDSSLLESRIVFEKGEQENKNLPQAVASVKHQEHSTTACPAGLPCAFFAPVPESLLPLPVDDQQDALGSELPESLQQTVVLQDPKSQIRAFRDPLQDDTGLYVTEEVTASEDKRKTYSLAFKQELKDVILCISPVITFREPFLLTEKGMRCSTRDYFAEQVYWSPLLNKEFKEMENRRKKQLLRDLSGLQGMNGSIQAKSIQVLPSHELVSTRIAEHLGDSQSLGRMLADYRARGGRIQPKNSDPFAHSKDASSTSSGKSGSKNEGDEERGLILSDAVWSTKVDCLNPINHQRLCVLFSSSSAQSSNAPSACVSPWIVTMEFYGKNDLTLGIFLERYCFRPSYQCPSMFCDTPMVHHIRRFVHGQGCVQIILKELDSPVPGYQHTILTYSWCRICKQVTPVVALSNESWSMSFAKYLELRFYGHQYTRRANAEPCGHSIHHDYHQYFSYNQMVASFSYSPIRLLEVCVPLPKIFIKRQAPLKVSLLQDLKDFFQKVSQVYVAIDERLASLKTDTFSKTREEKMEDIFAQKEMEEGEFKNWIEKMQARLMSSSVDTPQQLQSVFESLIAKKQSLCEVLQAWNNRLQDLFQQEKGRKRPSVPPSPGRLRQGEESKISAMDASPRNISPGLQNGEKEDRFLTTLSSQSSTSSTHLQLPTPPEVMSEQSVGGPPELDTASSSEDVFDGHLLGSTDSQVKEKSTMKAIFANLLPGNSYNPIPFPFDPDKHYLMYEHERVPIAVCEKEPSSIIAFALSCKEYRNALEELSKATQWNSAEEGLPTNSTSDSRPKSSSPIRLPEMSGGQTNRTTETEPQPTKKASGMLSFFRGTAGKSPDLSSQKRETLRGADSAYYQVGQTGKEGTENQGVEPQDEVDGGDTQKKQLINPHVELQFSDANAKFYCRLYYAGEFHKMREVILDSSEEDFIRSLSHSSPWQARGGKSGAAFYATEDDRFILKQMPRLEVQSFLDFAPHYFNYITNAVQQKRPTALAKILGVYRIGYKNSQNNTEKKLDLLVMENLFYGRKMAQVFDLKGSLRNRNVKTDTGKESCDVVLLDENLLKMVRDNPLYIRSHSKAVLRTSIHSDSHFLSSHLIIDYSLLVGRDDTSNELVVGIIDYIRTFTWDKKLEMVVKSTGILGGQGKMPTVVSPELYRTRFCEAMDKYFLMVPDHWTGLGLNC
PIKfyve, sequence (Q9Y2I7 whole entry): as the sequence (Q9Y2I7 whole entry S696N/L932S/Q995L/T998S/S1033A/Q1183K) above, with N696S, S932L, L995Q, S998T, A1033S, K1183Q counted along it

For `Oc1cc(C2CCOCC2)nn1-c1cc(N2CCOCC2)n2nc(-c3ccncc3)cc2n1`, in assay [1], the IC50 (commonly the midpoint of a concentration-inhibition curve) was determined as 9100 nM.

With `Cc1cccc(/C=N/Nc2nc(N3CCOCC3)c3nc(-c4ccncc4)n(C)c3n2)c1` [drawing 192], the “FAB1 TDP-43 (active/inactive)” value in the assay with FAB1 TDP-43 yeast strain is listed as “Inactive”. Besides, the “PIKfyve TDP-43 (active/inactive)” value in assay [1] is given as “Active”.

With `CN(C)c1cc(N2CCOCC2)n2nc(-c3ccncc3)cc2n1`, the “FAB1 TDP-43 (active/inactive)” value in the assay with FAB1 TDP-43 yeast strain is recorded as “Inactive”. Moreover, the “PIKfyve TDP-43 (active/inactive)” value in assay [1] is on record as “Inactive”.

Consider `c1ccc(-c2cccc(-c3cc(N4CCOCC4)n4nc(-c5ccncc5)cc4n3)n2)cc1`, for which it took 230 nM to reach half-maximal inhibition in assay [1] (IC50). In the case of `Cc1cccc(/C=N/Nc2cc(N3CCOCC3)n3nc(-c4ccncc4)cc3n2)c1` [APY0201], the “viable cells (propidium iodide-negative population)” value in the assay on FAB1 TDP-43 yeast strain (FAB1 TDP-43, across a range of compound concentrations (only 0.23 μM is shown), FIG. 5) was “no increase in viable cells”. Besides, the “population of propidium iodide-positive dead cells” value in assay [1] (PIKFYVE TDP-43 model, 0.23 μM, FIG. 6) is “reduced the population of propidium iodide-positive dead cells”. Moreover, the viability result in assay [1] (PIKFYVE TDP-43 model, concentrations ranging from 0.5 mM to less than 100 nM) is “increased viability”. Take `Cc1cccc(/C=N/Nc2cc(N3CC4CC3CO4)n3nc(-c4ccncc4)cc3n2)c1` (stereo not drawn): in the assay with FAB1 TDP-43 yeast strain, the “FAB1 TDP-43 (active/inactive)” value was “Inactive”. The “PIKfyve TDP-43 (active/inactive)” value in assay [1] was “Active”. In the case of `Cc1cccc(/C=N/Nc2cc(N3CCOCC3)nc(OCCc3ccc(CN)cc3)n2)c1`, the IC50 in assay [1] was found to be 1120 nM. For `Cc1cccc(/C=N/Nc2nc(N3CCOCC3)c3nc(-c4ccncc4)n(C)c3n2)c1` [drawing 206], the IC50 in assay [1] is 4720 nM. In assay [1], `c1ccc(N2CCc3c(OCc4cccnc4)nc(N4CCOCC4)nc32)cc1` gave a 50% inhibitory concentration (IC50) of 2680 nM. Regarding `Cc1cccc(/C=N/Nc2nc(N3CCOCC3)c3ncccc3n2)c1`, inhibition in assay [1] was half-maximal at 8210 nM (IC50). With `N#Cc1cc(N2CCOCC2)n2nc(-c3ccncc3)cc2n1`, the “FAB1 TDP-43 (active/inactive)” value in the assay on FAB1 TDP-43 yeast strain was “Inactive”. In addition, the “PIKfyve TDP-43 (active/inactive)” value in assay [1] was “Inactive”. Moreover, the IC50 in assay [2] (ADP-Glo with full-length PIKfyve, read-out: PIKfyve IC50) was over 10 µM. Turning to `Cn1c(-c2ccncc2)nc2c(N3CCOCC3)ncnc21`, the “FAB1 TDP-43 (active/inactive)” value with FAB1 TDP-43 yeast strain is “Inactive”. The “PIKfyve TDP-43 (active/inactive)” value in assay [1] is given as “Inactive”.

Regarding `Cc1cccc(/C=N/Nc2cc(N3CCOCC3)n3nc(-c4ccncc4)cc3n2)c1` [drawing 190], the “FAB1 TDP-43 (active/inactive)” value in the assay on FAB1 TDP-43 yeast strain was “Inactive”. Besides, the “PIKfyve TDP-43 (active/inactive)” value in assay [1] is reported as “Active”. On to `c1ccc(-c2ccnc(-c3cc(N4CCOCC4)nc(OCc4ccncc4)n3)n2)cc1`, for which, in assay [1], the half-inhibitory concentration (IC50) was 1450 nM. As for `Fc1cccc(-c2ccnn2-c2nc(N3CCOCC3)c3ncccc3n2)c1`, 5750 nM corresponded to half-maximal inhibition in assay [1] (IC50). The same measure, in the same setting: the same measure for `Oc1cc(-c2ccccc2)nn1-c1cc(N2CCOCC2)n2nc(-c3ccncc3)nc2n1`: 693 nM. Take `COc1c(Nc2ccncc2)nc(N2CCOCC2)nc1-c1ccnc(-c2ccn(C)n2)c1` [Compound 14, 5-methoxy-6-(2-(1-methyl-H-pyrazol-3-yl)pyridin-4-yl)-2-morpholino-N-(pyridin-4-yl)pyrimidin-4-amine]: the half-maximal inhibitory concentration (IC50) on PIKfyve is 0.01 to 0.1 µM; in assay [2] (setting [3]) it was under 0.01 µM. Take `Cn1c(=O)c2c(Nc3ccncc3)nc(N3CCOCC3)nc2c2cc(-n3cccn3)ccc21` [Compound 65, 6-methyl-2-morpholino-9-pyrazol-1-yl-4-(4-pyridylamino)pyrimido[5,4-c]quinolin-5-one]: the IC50 against PIKfyve is 1 to 10 µM; in assay [2] (setting [3]), 0.01 to 0.1 µM. The matching figures for `COc1c(NCc2cccnc2)nc(-c2ccncc2)nc1-c1cccc(-c2ccn(C)n2)c1` [Compound 62, 5-methoxy-6-(3-(1-methyl-1H-pyrazol-3-yl)phenyl)-N-(pyridin-3-ylmethyl)-2-(pyridin-4-yl)pyrimidin-4-amine]: 0.1 to 1 µM and under 0.01 µM. Regarding `COc1c(Oc2cccnc2)nc(N2CCOCC2)nc1-n1cc(-c2ccccc2)cn1` [Compound 2, 4-(5-methoxy-4-(4-phenyl-1H-pyrazol-1-yl)-6-(pyridin-3-yloxy)pyrimidin-2-yl) morpholine], the concentration for half-maximal inhibition (IC50) on PIKfyve lay within 1 to 10 µM; in assay [2] (setting [3]) it was 0.01 to 0.1 µM.

The values above are taken from patent US20250197375A1, “PYRIMIDINES AND METHODS OF THEIR USE” (Kineta, Inc., priority 2021, published 2025).
